Earlier results, collected in PubChem BioAssay AID1259409 (Chemical Carcinogenesis Research Information System (CCRIS), 2018).

System: rodent chemically induced tumor inhibition, incidence and multiplicity
Assay: CCRIS tumor inhibitor studies
Conditions: Species: MOUSE

O=c1c(O)c(-c2ccc(O)c(O)c2)oc2cc(O)cc(O)c12
tumour outcome (control, treated, inhibition, significance) (Carcinogen: 7,12-DIMETHYLBENZ[A]ANTHRACENE, 57-97-6, Dose [Inhibitor]: 30 UMOL IN 100 µL ACETONE/DIMETHYL SULFOXIDE (4/1, V/V) 2/WK 40 MINUTES BEFORE AND CONCURRENTLY WITH EACH PROMOTER TREAT, Route [Inhibitor]: DERMAL, Strain/Sex: ICR/FEMALE, Target Tissue: Type of Lesion: SKIN: PAPILLOMA, Dose [Carcinogen]: 100 UG IN 100 µL ACETONE ONCE, Promoter: TELEOCIDIN, 78474-55-2): 80%, 30%, 63%, not calculated
tumour outcome (control, treated, inhibition, significance) (Carcinogen: 7,12-DIMETHYLBENZ[A]ANTHRACENE, 57-97-6, Dose [Inhibitor]: 100 UG IN 0.2 ML ACETONE ONCE 5 MIN BEFORE CARCINOGEN TREATMENT (STUDY DURATION: 31 WK), Route [Inhibitor]: DERMAL, Strain/Sex: CD-1/FEMALE, Target Tissue: Type of Lesion: SKIN: PAPILLOMA, Dose [Carcinogen]: 10 NMOL IN 0.2 ML ACETONE ONCE, Promoter: 12-O-TETRADECANOYLPHORBOL-13-ACETATE, 16561-29-8): 87%, 70%, 20%, not calculated
tumour outcome (control, treated, inhibition, significance) (Carcinogen: (+/-)-7BETA,8ALPHA-DIHYDROXY-9ALPHA,10ALPHA-EPOXY-7,8,9,10- TETRAHYDROBENZO[A]PYRENE, 58917-67-2, Dose [Inhibitor]: 3000 NMOL IN 0.2 ML ACETONE 1/D FOR 7 D (STUDY DURATION: 18 WK), Route [Inhibitor]: DERMAL, Strain/Sex: SENCAR/FEMALE, Target Tissue: Type of Lesion: SKIN: TUMOR, Dose [Carcinogen]: 200 NMOL IN 0.2 ML ACETONE ONCE 30 MIN POST LAST CARCINOGEN DOSE, Promoter: 12-O-TETRADECANOYLPHORBOL-13-ACETATE, 16561-29-8): 75%, 65%, 13%, not significant
tumour outcome (control, treated, inhibition, significance) (Carcinogen: (+/-)-7BETA,8ALPHA-DIHYDROXY-9ALPHA,10ALPHA-EPOXY-7,8,9,10-TETRAHYDROBENZO[A]PYR ENE, 58917-67-2, Dose [Inhibitor]: 0, 1400 NMOL (TOTAL DOSE) APPLIED 10 MIN PRIOR TO CARCINOGEN DOSE INJECTED AS 1/7, 2/7, AND 4/7 OF THE TOTAL ON DAYS 1,, Route [Inhibitor]: INTRAPERITONEAL, Strain/Sex: ICR/MALE,FEMALE, Target Tissue: Type of Lesion: LUNG: TUMOR, Dose [Carcinogen]: 30 NMOL (TOTAL DOSE) INJECTED IN DOSES OF 1/7, 2/7, AND 4/7 ON DAYS 1, 8, AND 15 OF LIFE, RESPECTIVELY, Promoter: NONE USED): 93%, 81%, 13%, not significant
tumour outcome (control, treated, inhibition, significance) (Carcinogen: (+/-)-7BETA,8ALPHA-DIHYDROXY-9ALPHA,10ALPHA-EPOXY-7,8,9,10-TETRAHYDROBENZO[A]PYR ENE, 58917-67-2, Dose [Inhibitor]: 0, 2500 NMOL IN 200 µL ACETONE:DMSO (90:10) ONCE APPLIED 5 MIN PRIOR TO CARCINOGEN DOSE (STUDY DURATION: 21 WK), Route [Inhibitor]: DERMAL, Strain/Sex: CD-1/FEMALE, Target Tissue: Type of Lesion: SKIN: TUMOR, Dose [Carcinogen]: 200 NMOL IN ACETONE:DMSO (90:10) ONCE, Promoter: 12-O-TETRADECANOYLPHORBOL-13-ACETATE, 16561-29-8): 59%, 69%, -17%, not significant
tumour outcome (control, treated, inhibition, significance) (Carcinogen: AZOXYMETHANE, 25843-45-2, Dose [Inhibitor]: 0, 0.1% IN DIET FOR DURATION OF STUDY (STUDY DURATION: 48 WK), Route [Inhibitor]: ORAL, Strain/Sex: CF-1/FEMALE, Target Tissue: Type of Lesion: COLON: TUMOR, Dose [Carcinogen]: 10 MG/KG BW 3 TIMES, Promoter: NONE USED): 8/32 (25%), 5/32 (16%), 36%, not significant
tumour outcome (control, treated, inhibition, significance) (Carcinogen: AZOXYMETHANE, 25843-45-2, Dose [Inhibitor]: 0, 0.5% IN DIET FOR DURATION OF STUDY (STUDY DURATION: 48 WK), Route [Inhibitor]: ORAL, Strain/Sex: CF-1/FEMALE, Target Tissue: Type of Lesion: COLON: TUMOR, Dose [Carcinogen]: 10 MG/KG BW 3 TIMES, Promoter: NONE USED): 8/32 (25%), 7/35 (20%), 20%, not significant
tumour outcome (control, treated, inhibition, significance) (Carcinogen: AZOXYMETHANE, 25843-45-2, Dose [Inhibitor]: 0, 2% IN DIET FOR DURATION OF STUDY (STUDY DURATION: 48 WK), Route [Inhibitor]: ORAL, Strain/Sex: CF-1/FEMALE, Target Tissue: Type of Lesion: COLON: TUMOR, Dose [Carcinogen]: 10 MG/KG BW 3 TIMES, Promoter: NONE USED): 8/32 (25%), 2/34 (6%), 76%, p=0.003
tumour outcome (control, treated, inhibition, significance) (Carcinogen: BENZO[A]PYRENE, 50-32-8, Dose [Inhibitor]: 0, 1400 NMOL (TOTAL DOSE) APPLIED 10 MIN PRIOR TO CARCINOGEN DOSE INJECTED AS 1/7, 2/7, AND 4/7 OF THE TOTAL ON DAYS 1,, Route [Inhibitor]: INTRAPERITONEAL, Strain/Sex: ICR/MALE,FEMALE, Target Tissue: Type of Lesion: LUNG: TUMOR, Dose [Carcinogen]: 450 NMOL (TOTAL DOSE) INJECTED IN DOSES OF 1/7, 2/7, AND 4/7 ON DAYS 1, 8, AND 15 OF LIFE, RESPECTIVELY, Promoter: NONE USED): 73%, 68%, 7%, not significant
tumour outcome (control, treated, inhibition, significance) (Carcinogen: BENZO[A]PYRENE, 50-32-8, Dose [Inhibitor]: 0, 2500 NMOL IN 200 µL ACETONE:DMSO (90:10) ONCE APPLIED 5 MIN PRIOR TO CARCINOGEN DOSE (STUDY DURATION: 21 WK), Route [Inhibitor]: DERMAL, Strain/Sex: CD-1/FEMALE, Target Tissue: Type of Lesion: SKIN: TUMOR, Dose [Carcinogen]: 50 NMOL IN ACETONE:DMSO (90:10) ONCE, Promoter: 12-O-TETRADECANOYLPHORBOL-13-ACETATE, 16561-29-8): 50%, 45%, 10%, not significant
tumour outcome (control, treated, inhibition, significance) (Carcinogen: BENZO[A]PYRENE, 50-32-8, Dose [Inhibitor]: 0, 12500 NMOL IN 200 µL ACETONE:DMSO (90:10) ONCE APPLIED 5 MIN PRIOR TO CARCINOGEN DOSE (STUDY DURATION: 21 WK), Route [Inhibitor]: DERMAL, Strain/Sex: CD-1/FEMALE, Target Tissue: Type of Lesion: SKIN: TUMOR, Dose [Carcinogen]: 50 NMOL IN ACETONE:DMSO (90:10) ONCE, Promoter: 12-O-TETRADECANOYLPHORBOL-13-ACETATE, 16561-29-8): 50%, 55%, -10%, not significant
tumour outcome (control, treated, inhibition, significance) (Carcinogen: BENZO[A]PYRENE, 50-32-8, Dose [Inhibitor]: 25 MG IN 0.1 ML DMSO 3/WK ADMINISTERED SIMULTANEOUSLY WITH CARCINOGEN FOR DURATION OF STUDY (STUDY DURATION: 368 D), Route [Inhibitor]: DERMAL, Strain/Sex: ICR/FEMALE, Target Tissue: Type of Lesion: SKIN: SQUAMOUS CARCINOMA, Dose [Carcinogen]: 5 UG IN 0.1 ML DMSO THAT ALSO CONTAINED AGENT 3/WK FOR DURATION OF STUDY, Promoter: NONE USED): 6/50 (12%), 0/50 (0%), 100%, not calculated
